Tests used:
Assay in all cases: cells
Type in all cases: functional, cell-based
Settings in all cases: Homo sapiens
D-247MG = tested on: D-247MG
Description: SANGER: Inhibition of human D-247MG cell growth in a cell viability assay.

DG-75 = tested on: DG-75;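 further: growth inhibition of DG-75 cells, read out with a cell viability assay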
Description: SANGER: Inhibition of human DG-75 cell growth in a cell viability assay.

DMS-153 = tested on: DMS-153
Description: SANGER: Inhibition of human DMS-153 cell growth in a cell viability assay.

HCC2157 = tested on: HCC2157;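 further: growth inhibition of the cancer cell line, read out as cell viability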
Description: SANGER: Inhibition of human HCC2157 cell growth in a cell viability assay.

IST-SL2 = tested on: IST-SL2;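 further: growth inhibition of human IST-SL2 cells, read out by a cell viability assay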
Description: SANGER: Inhibition of human IST-SL2 cell growth in a cell viability assay.

Kasumi 1 = tested on: Kasumi 1;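 further: growth inhibition of human Kasumi-1 cells, read out by a cell viability assay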
Description: SANGER: Inhibition of human KASUMI-1 cell growth in a cell viability assay.

KMS-12-PE = tested on: KMS-12-PE;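 further: growth inhibition of human KMS-12-PE cells, measured with a cell viability assay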
Description: SANGER: Inhibition of human KMS-12-PE cell growth in a cell viability assay.

MC-CAR = tested on: MC-CAR;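 further: growth inhibition of the human MC-CAR cell line, read out by a cell viability assay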
Description: SANGER: Inhibition of human MC-CAR cell growth in a cell viability assay.

MHH-CALL-2 = tested on: MHH-CALL-2;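 further: growth inhibition of the cell line, read out in a cell viability assay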
Description: SANGER: Inhibition of human MHH-CALL-2 cell growth in a cell viability assay.

NB1 = tested on: NB1;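 further: reduction of NB1 cell proliferation, read out with a viability assay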
Description: SANGER: Inhibition of human NB1 cell growth in a cell viability assay.

NCI-H64 = tested on: NCI-H64;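 further: growth inhibition of NCI-H64 cells, read out with a cell viability assay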
Description: SANGER: Inhibition of human NCI-H64 cell growth in a cell viability assay.

NCI-H748 = tested on: NCI-H748;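 further: growth inhibition of NCI-H748 cells, measured by a cell viability assay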
Description: SANGER: Inhibition of human NCI-H748 cell growth in a cell viability assay.

SNU-16 = tested on: SNU-16;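 further: growth inhibition of human SNU-16 cells, determined with a cell viability readout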
Description: SANGER: Inhibition of human NCI-SNU-16 cell growth in a cell viability assay.

SR = tested on: SR
Description: SANGER: Inhibition of human SR cell growth in a cell viability assay.

TGW = tested on: TGW;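 further: growth inhibition of human TGW cells, read out with a cell viability assay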
Description: SANGER: Inhibition of human TGW cell growth in a cell viability assay.

TUR = tested on: TUR;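 further: growth inhibition of human TUR cells, read out with a cell viability assay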
Description: SANGER: Inhibition of human TUR cell growth in a cell viability assay.

CMK = tested on: CMK;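 further: growth inhibition of CMK cells, read out as cell viability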
Description: SANGER: Inhibition of human CMK cell growth in a cell viability assay.

Ca-Ski = tested on: Ca-Ski;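 further: cell viability assay measuring inhibition of Ca-Ski cell growth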
Description: SANGER: Inhibition of human Ca-Ski cell growth in a cell viability assay.

DK-MG = tested on: DK-MG;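 further: growth inhibition of DK-MG cells, read out with a cell viability assay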
Description: SANGER: Inhibition of human DK-MG cell growth in a cell viability assay.

EPLC-272H = tested on: EPLC-272H
Description: SANGER: Inhibition of human EPLC-272H cell growth in a cell viability assay.

HCC38 = tested on: HCC38;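 further: cell viability assay on the human HCC38 cell line, with IC50 marking the concentration that inhibits cell growth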
Description: SANGER: Inhibition of human HCC38 cell growth in a cell viability assay.

HCT-116 = tested on: HCT-116
Description: SANGER: Inhibition of human HCT-116 cell growth in a cell viability assay.

HMV-2 cell line = tested on: HMV-2 cell line;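 further: growth inhibition of HMV-II cells, read out with a cell viability assay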
Description: SANGER: Inhibition of human HMV-II cell growth in a cell viability assay.

HN = tested on: HN
Description: SANGER: Inhibition of human HN cell growth in a cell viability assay.

HOP-92 = tested on: HOP-92;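 further: cell viability readout, with IC50 reflecting inhibition of HOP-92 cell growth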
Description: SANGER: Inhibition of human HOP-92 cell growth in a cell viability assay.

HuO-3N1 = tested on: HuO-3N1;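 further: cell viability readout used to measure how strongly compounds suppress proliferation of human HuO-3N1 cells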
Description: SANGER: Inhibition of human HuO-3N1 cell growth in a cell viability assay.

LCLC-97TM1 = tested on: LCLC-97TM1;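 further: cell viability assay measuring growth inhibition of human LCLC-97TM1 cells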
Description: SANGER: Inhibition of human LCLC-97TM1 cell growth in a cell viability assay.

MC-IXC = tested on: MC-IXC;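 further: growth inhibition of MC-IXC cells, read out with a cell viability assay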
Description: SANGER: Inhibition of human MC-IXC cell growth in a cell viability assay.

MG-63 = tested on: MG-63;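 further: growth inhibition of human MG-63 cells, read out with a cell viability assay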
Description: SANGER: Inhibition of human MG-63 cell growth in a cell viability assay.

MOLT-13 = tested on: MOLT-13;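 further: IC50 for suppression of MOLT-13 cell growth, read out with a cell viability assay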
Description: SANGER: Inhibition of human MOLT-13 cell growth in a cell viability assay.

NCI-H2009 = tested on: NCI-H2009;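 further: cell viability assay measuring inhibition of NCI-H2009 cell growth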
Description: SANGER: Inhibition of human NCI-H2009 cell growth in a cell viability assay.

NCI-H460 = tested on: NCI-H460;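 further: cell viability assay scoring growth inhibition of human NCI-H460 cells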
Description: SANGER: Inhibition of human NCI-H460 cell growth in a cell viability assay.

NCI-H596 = tested on: NCI-H596;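 further: growth inhibition of NCI-H596 cells, read out with a cell viability assay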
Description: SANGER: Inhibition of human NCI-H596 cell growth in a cell viability assay.

NUGC-3 = tested on: NUGC-3;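 further: growth inhibition of human NUGC-3 cells, read out with a cell viability assay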
Description: SANGER: Inhibition of human NUGC-3 cell growth in a cell viability assay.

OVCAR-8 = tested on: OVCAR-8;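 further: growth inhibition of human OVCAR-8 cells, read out by a cell viability assay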
Description: SANGER: Inhibition of human OVCAR-8 cell growth in a cell viability assay.

PA-1 = tested on: PA-1;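 further: IC50 for suppression of PA-1 cell proliferation, determined with a cell viability read-out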
Description: SANGER: Inhibition of human PA-1 cell growth in a cell viability assay.

RPMI-2650 = tested on: RPMI-2650
Description: SANGER: Inhibition of human RPMI-2650 cell growth in a cell viability assay.

SW1783 = tested on: SW1783;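 further: cell growth inhibition measured with a viability assay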
Description: SANGER: Inhibition of human SW1783 cell growth in a cell viability assay.

SW756 = tested on: SW756;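 further: growth inhibition of human SW756 cells, read out with a cell viability assay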
Description: SANGER: Inhibition of human SW756 cell growth in a cell viability assay.

SW780 = tested on: SW780;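 further: growth inhibition of the cells, read out with a cell viability assay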
Description: SANGER: Inhibition of human SW780 cell growth in a cell viability assay.

T-24 = tested on: T-24;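 further: growth inhibition of T-24 cells, read out with a cell viability assay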
Description: SANGER: Inhibition of human T-24 cell growth in a cell viability assay.

T47D = tested on: T47D;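 further: growth inhibition of human T47D cells, measured with a cell viability assay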
Description: SANGER: Inhibition of human T47D cell growth in a cell viability assay.

TCC-SUP = tested on: TCC-SUP;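 further: growth inhibition of TCC-SUP cells, read out with a cell viability assay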
Description: SANGER: Inhibition of human TCCSUP cell growth in a cell viability assay.

AN3-CA = tested on: AN3-CA;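 further: growth inhibition of human AN3-CA cells measured by a cell viability assay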
Description: SANGER: Inhibition of human AN3-CA cell growth in a cell viability assay.

C3A = tested on: C3A;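 further: growth inhibition of C3A human cells, quantified with a cell viability readout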
Description: SANGER: Inhibition of human C3A cell growth in a cell viability assay.

CAL-27 = tested on: CAL-27;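 further: Viability-based readout, IC50 reflecting inhibition of CAL-27 cell growth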
Description: SANGER: Inhibition of human CAL-27 cell growth in a cell viability assay.

CAL-33 = tested on: CAL-33;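 further: growth inhibition of CAL-33 cells, read out with a cell viability assay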
Description: SANGER: Inhibition of human CAL-33 cell growth in a cell viability assay.

CAL-39 = tested on: CAL-39;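 further: cell viability assay measuring growth inhibition of CAL-39 cells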
Description: SANGER: Inhibition of human CAL-39 cell growth in a cell viability assay.

CAL-54 = tested on: CAL-54;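 further: growth inhibition of CAL-54 cells, read out by a viability measurement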
Description: SANGER: Inhibition of human CAL-54 cell growth in a cell viability assay.

U-251 = tested on: U-251;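 further: growth inhibition of human U-251 cells, read out through a cell viability assay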
Description: SANGER: Inhibition of human U251 cell growth in a cell viability assay.

VMRC-RCZ = tested on: VMRC-RCZ;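 further: growth inhibition measured with a cell viability assay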
Description: SANGER: Inhibition of human VMRC-RCZ cell growth in a cell viability assay.

YH-13 = tested on: YH-13;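 further: cell viability readout of growth suppression in the human YH-13 cell line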
Description: SANGER: Inhibition of human YH-13 cell growth in a cell viability assay.

YKG-1 = tested on: YKG-1;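 further: cell growth inhibition, read out with a viability assay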
Description: SANGER: Inhibition of human YKG-1 cell growth in a cell viability assay.

CAMA-1 = tested on: CAMA-1;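 further: growth inhibition of CAMA-1 cells, read out with a cell viability assay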
Description: SANGER: Inhibition of human CAMA-1 cell growth in a cell viability assay.

Question: With `Cc1n[nH]c2ccc(-c3cncc(OC[C@@H](N)Cc4c[nH]c5ccccc45)c3)cc12` [A-443654] as the compound, how does the IC50 (D-247MG) read?
Answer: The IC50 was 974 nM.

Question: And the IC50 (DG-75)?
Answer: Its IC50 is 546 nM.

Question: And the IC50 (DMS-153)?
Answer: Its IC50 is 669 nM.

Question: And the IC50 (HCC2157)?
Answer: The IC50 was 561 nM.

Question: What about the IC50 (IST-SL2) of the same compound?
Answer: The IC50 was 194 nM.

Question: And the IC50 (Kasumi 1)?
Answer: The IC50 was > 1020 nM.

Question: And the IC50 (KMS-12-PE)?
Answer: The IC50 was > 1020 nM.

Question: What about the IC50 (MC-CAR) of the same compound?
Answer: Its IC50 is > 1020 nM.

Question: And the IC50 (MHH-CALL-2)?
Answer: Its IC50 is > 1020 nM.

Question: What about the IC50 (NB1) of the same compound?
Answer: Its IC50 is 117 nM.

Question: What about the IC50 (NCI-H64) of the same compound?
Answer: The IC50 was > 1020 nM.

Question: What about the IC50 (NCI-H748) of the same compound?
Answer: The IC50 was 508 nM.

Question: And the IC50 (SNU-16)?
Answer: Its IC50 is > 1020 nM.

Question: What about the IC50 (SR) of the same compound?
Answer: The IC50 was 184 nM.

Question: What about the IC50 (TGW) of the same compound?
Answer: Its IC50 is 569 nM.

Question: What about the IC50 (TUR) of the same compound?
Answer: The IC50 was > 1020 nM.

Question: And the IC50 (CMK)?
Answer: The IC50 was 275 nM.

Question: With `CC[C@@]1(O)C(=O)OCc2c1cc1n(c2=O)Cc2cc3ccccc3nc2-1` [CAMPTOTHECIN] as the compound, how does the IC50 (Ca-Ski) read?
Answer: Its IC50 is 4.97 nM.

Question: What about the IC50 (D-247MG) of the same compound?
Answer: The IC50 was 39.5 nM.

Question: What about the IC50 (DK-MG) of the same compound?
Answer: The IC50 was 84.7 nM.

Question: What about the IC50 (EPLC-272H) of the same compound?
Answer: The IC50 was 72.8 nM.

Question: And the IC50 (HCC38)?
Answer: Its IC50 is 12.9 nM.

Question: And the IC50 (HCT-116)?
Answer: The IC50 was 5.05 nM.

Question: And the IC50 (HMV-2 cell line)?
Answer: Its IC50 is 8.89 nM.

Question: What about the IC50 (HN) of the same compound?
Answer: Its IC50 is 1.4 nM.

Question: What about the IC50 (HOP-92) of the same compound?
Answer: The IC50 was 8.79 nM.

Question: What about the IC50 (HuO-3N1) of the same compound?
Answer: The IC50 was 12.7 nM.

Question: What about the IC50 (Kasumi 1) of the same compound?
Answer: Its IC50 is 4.07 nM.

Question: And the IC50 (LCLC-97TM1)?
Answer: Its IC50 is 8.14 nM.

Question: And the IC50 (MC-IXC)?
Answer: Its IC50 is 0.513 nM.

Question: What about the IC50 (MG-63) of the same compound?
Answer: The IC50 was 7.65 nM.

Question: And the IC50 (MOLT-13)?
Answer: Its IC50 is 1.79 nM.

Question: And the IC50 (NCI-H2009)?
Answer: The IC50 was 68.1 nM.

Question: What about the IC50 (NCI-H460) of the same compound?
Answer: The IC50 was 24.1 nM.

Question: And the IC50 (NCI-H596)?
Answer: The IC50 was > 100 nM.

Question: And the IC50 (NUGC-3)?
Answer: The IC50 was 3.14 nM.

Question: What about the IC50 (OVCAR-8) of the same compound?
Answer: Its IC50 is 7.27 nM.

Question: And the IC50 (PA-1)?
Answer: Its IC50 is 0.981 nM.

Question: And the IC50 (RPMI-2650)?
Answer: The IC50 was 2.22 nM.

Question: And the IC50 (SW1783)?
Answer: Its IC50 is 24.6 nM.

Question: And the IC50 (SW756)?
Answer: Its IC50 is 4.21 nM.

Question: And the IC50 (SW780)?
Answer: Its IC50 is 25.8 nM.

Question: And the IC50 (T-24)?
Answer: Its IC50 is 1.61 nM.

Question: What about the IC50 (T47D) of the same compound?
Answer: The IC50 was 13.5 nM.

Question: And the IC50 (TCC-SUP)?
Answer: Its IC50 is 39 nM.

Question: And the IC50 (AN3-CA)?
Answer: Its IC50 is 34 nM.

Question: What about the IC50 (C3A) of the same compound?
Answer: The IC50 was 56.9 nM.

Question: What about the IC50 (CAL-27) of the same compound?
Answer: The IC50 was 2.02 nM.

Question: And the IC50 (CAL-33)?
Answer: The IC50 was 6 nM.

Question: And the IC50 (CAL-39)?
Answer: Its IC50 is 19.2 nM.

Question: What about the IC50 (CAL-54) of the same compound?
Answer: The IC50 was 4.76 nM.

Question: What about the IC50 (U-251) of the same compound?
Answer: Its IC50 is 1.87 nM.

Question: What about the IC50 (VMRC-RCZ) of the same compound?
Answer: Its IC50 is 47.3 nM.

Question: And the IC50 (YH-13)?
Answer: Its IC50 is 11.6 nM.

Question: What about the IC50 (YKG-1) of the same compound?
Answer: The IC50 was 5.45 nM.

Question: What about the IC50 (CAMA-1) of the same compound?
Answer: The IC50 was 87.4 nM.

Question: What does the source list for `Cc1nc(Nc2ncc(C(=O)Nc3c(C)cccc3Cl)s2)cc(N2CCN(CCO)CC2)n1` [DASATINIB]?
Answer: IC50 (D-247MG): > 1280 nM; IC50 (DG-75): > 1280 nM; IC50 (DMS-153): > 1280 nM; IC50 (HCC2157): > 1280 nM; IC50 (IST-SL2): 503 nM; IC50 (Kasumi 1): > 1280 nM; IC50 (KMS-12-PE): > 1280 nM; IC50 (MC-CAR): > 1280 nM; IC50 (MHH-CALL-2): > 1280 nM; IC50 (NB1): > 1280 nM; IC50 (NCI-H64): > 1280 nM; IC50 (NCI-H748): > 1280 nM; IC50 (SNU-16): > 1280 nM; IC50 (SR): > 1280 nM; IC50 (TGW): > 1280 nM; IC50 (TUR): > 1280 nM; IC50 (CMK): > 1280 nM

Question: Which results are given for `CCn1c(-c2nonc2N)nc2cnc(Oc3cccc(NC(=O)c4ccc(OCCN5CCOCC5)cc4)c3)cc21` [GSK-269962A]?
Answer: IC50 (D-247MG): 628 nM; IC50 (DG-75): > 2500 nM; IC50 (DMS-153): > 2500 nM; IC50 (HCC2157): > 2500 nM; IC50 (IST-SL2): > 2500 nM; IC50 (Kasumi 1): > 2500 nM; IC50 (KMS-12-PE): > 2500 nM; IC50 (MC-CAR): > 2500 nM; IC50 (MHH-CALL-2): > 2500 nM; IC50 (MOLT-13): > 2500 nM; IC50 (NB1): > 2500 nM; IC50 (NCI-H64): > 2500 nM; IC50 (NCI-H748): > 2500 nM; IC50 (SNU-16): > 2500 nM; IC50 (SR): < 9.77 nM; IC50 (TGW): > 2500 nM; IC50 (TUR): > 2500 nM; IC50 (CMK): 1010 nM

Question: Which IC50 (D-247MG) does the source give for `Cc1[nH]c(/C=C2\C(=O)Nc3ccc(S(=O)(=O)Cc4c(Cl)cccc4Cl)cc32)c(C)c1C(=O)N1CCC[C@@H]1CN1CCCC1` [PHA-665752] here?
Answer: The IC50 was > 2000 nM.

Question: What about the IC50 (DG-75) of the same compound?
Answer: The IC50 was > 2000 nM.

Question: What about the IC50 (DMS-153) of the same compound?
Answer: Its IC50 is > 2000 nM.

Question: And the IC50 (HCC2157)?
Answer: The IC50 was > 2000 nM.

Question: And the IC50 (IST-SL2)?
Answer: The IC50 was > 2000 nM.

Question: What about the IC50 (Kasumi 1) of the same compound?
Answer: The IC50 was > 2000 nM.

Question: What about the IC50 (KMS-12-PE) of the same compound?
Answer: The IC50 was > 2000 nM.

Question: What about the IC50 (MC-CAR) of the same compound?
Answer: The IC50 was > 2000 nM.

Question: What about the IC50 (MHH-CALL-2) of the same compound?
Answer: The IC50 was > 2000 nM.

Question: What about the IC50 (MOLT-13) of the same compound?
Answer: Its IC50 is > 2000 nM.

Question: And the IC50 (NB1)?
Answer: Its IC50 is > 2000 nM.

Question: What about the IC50 (NCI-H64) of the same compound?
Answer: The IC50 was > 2000 nM.

Question: And the IC50 (NCI-H748)?
Answer: Its IC50 is > 2000 nM.

Question: And the IC50 (SNU-16)?
Answer: The IC50 was > 2000 nM.

Question: And the IC50 (SR)?
Answer: The IC50 was > 2000 nM.

Question: And the IC50 (TGW)?
Answer: The IC50 was > 2000 nM.

Question: And the IC50 (TUR)?
Answer: The IC50 was > 2000 nM.

Question: What about the IC50 (CMK) of the same compound?
Answer: Its IC50 is > 2000 nM.

From ChEMBL document CHEMBL1201861, “Genomics of Drug Sensitity in Cancer screening data, Wellcome Trust Sanger Institute”
